Assay results reported in PubChem BioAssay (NCI).
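A five-concentration, 48-hour dose response in 96-well plates underlies each endpoint, interpolated linearly between surrounding concentrations. The concentration for 50% growth inhibition is given as GI50. TGI: concentration producing complete growth inhibition.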

Tests used:
Experiment in all cases: inhibition of tumour cell growth, NCI panel, 48 h
SK-MEL-2 melanoma = test system: SK-MEL-2 melanoma
T-47D breast = test system: T-47D breast
NCI-H23 lung = test system: NCI-H23 lung
A498 renal = test system: A498 renal
K-562 leukemia = test system: K-562 leukemia
COLO 205 colon = test system: COLO 205 colon
SK-MEL-5 melanoma = test system: SK-MEL-5 melanoma
SNB-19 CNS = test system: SNB-19 CNS
IGROV1 ovarian = test system: IGROV1 ovarian
NCI-H522 lung = test system: NCI-H522 lung
HOP-62 NSCLC = test system: HOP-62 NSCLC
HT29 colon = test system: HT29 colon
EKVX NSCLC = test system: EKVX NSCLC
CAKI-1 renal = test system: CAKI-1 renal
RXF 393 renal = test system: RXF 393 renal
SNB-75 CNS = test system: SNB-75 CNS
LOX IMVI melanoma = test system: LOX IMVI melanoma
BT-549 breast = test system: BT-549 breast
NCI/ADR-RES ovarian = test system: NCI/ADR-RES ovarian
CCRF-CEM leukemia = test system: CCRF-CEM leukemia
MALME-3M melanoma = test system: MALME-3M melanoma
SR leukemia = test system: SR leukemia
PC-3 prostate = test system: PC-3 prostate
MDA-MB-435 = test system: MDA-MB-435
MDA-MB-231 breast = test system: MDA-MB-231 breast
TK-10 renal = test system: TK-10 renal
HCT-116 colon = test system: HCT-116 colon
SW-620 colon = test system: SW-620 colon
NCI-H460 lung = test system: NCI-H460 lung
HCT-15 colon = test system: HCT-15 colon

CC1(c2ccccc2)NC(=O)N(CC(=O)Nc2ccc(C(=O)/C=C/c3ccc(Cl)cc3)cc2)C1=O (centres undefined)
GI50 (SK-MEL-2 melanoma): 11.5 µM
TGI (SK-MEL-2 melanoma): 28 µM
GI50 (T-47D breast): 2.59 µM
TGI (T-47D breast): 14.6 µM
GI50 (NCI-H23 lung): 11.7 µM
TGI (NCI-H23 lung): 24.8 µM
GI50 (A498 renal): 14.4 µM
TGI (A498 renal): 38.2 µM
GI50 (K-562 leukemia): 3.09 µM
TGI (K-562 leukemia): 13.1 µM
GI50 (COLO 205 colon): 13.2 µM
TGI (COLO 205 colon): 29.7 µM
GI50 (SK-MEL-5 melanoma): 4.72 µM
TGI (SK-MEL-5 melanoma): 16.6 µM
GI50 (SNB-19 CNS): 11.2 µM
TGI (SNB-19 CNS): 24.4 µM
GI50 (IGROV1 ovarian): 9.27 µM
TGI (IGROV1 ovarian): 22.3 µM
GI50 (NCI-H522 lung): 6.69 µM
TGI (NCI-H522 lung): 30 µM
GI50 (HOP-62 NSCLC): 12.5 µM
TGI (HOP-62 NSCLC): 29.8 µM
GI50 (HT29 colon): 3.7 µM
TGI (HT29 colon): 15.7 µM
GI50 (EKVX NSCLC): 4.64 µM
TGI (EKVX NSCLC): 23.5 µM
GI50 (CAKI-1 renal): 5.51 µM
TGI (CAKI-1 renal): 20.7 µM
GI50 (RXF 393 renal): 2.97 µM
TGI (RXF 393 renal): 13.6 µM
GI50 (SNB-75 CNS): 1.48 µM
TGI (SNB-75 CNS): 21.8 µM
GI50 (LOX IMVI melanoma): 2.95 µM
TGI (LOX IMVI melanoma): 11.1 µM
GI50 (BT-549 breast): 4.78 µM
TGI (BT-549 breast): 19 µM
GI50 (NCI/ADR-RES ovarian): 13.5 µM
TGI (NCI/ADR-RES ovarian): 46.4 µM
GI50 (CCRF-CEM leukemia): 4 µM
TGI (CCRF-CEM leukemia): 30.8 µM
GI50 (MALME-3M melanoma): 13.1 µM
TGI (MALME-3M melanoma): 30.8 µM
GI50 (SR leukemia): 2.99 µM
TGI (SR leukemia): > 100 µM
GI50 (PC-3 prostate): 3.61 µM
TGI (PC-3 prostate): 27.6 µM
GI50 (MDA-MB-435): 2.15 µM
TGI (MDA-MB-435): 4.83 µM
GI50 (MDA-MB-231 breast): 5.97 µM
TGI (MDA-MB-231 breast): 21.6 µM
GI50 (TK-10 renal): 10.8 µM
TGI (TK-10 renal): 35.4 µM
GI50 (HCT-116 colon): 1.37 µM
TGI (HCT-116 colon): 2.8 µM
GI50 (SW-620 colon): 5.93 µM
TGI (SW-620 colon): 20.7 µM
GI50 (NCI-H460 lung): 12 µM
TGI (NCI-H460 lung): 27.8 µM
GI50 (HCT-15 colon): 4.55 µM
